Patent US9315475B2 (MERCK SHARP & DOHME CORP., priority 2011, dated 2016)

How the values were obtained:
[1] = tested on: HIV-1 (H9IIIB strain); assay: Antiviral acute infection assay in cell culture (Spread); assay type: cell-based; conditions: Human immunodeficiency virus 1, T-lymphoid, HIV-1 H9IIIB infection of MT-4 human T-lymphoid cells in 10% FBS; mean of at least two independent experiments
Text: Antiviral Assays in Cell Culture (“Spread”)
Acute Infection Assay (“Spread”) data were generated using HIV-1 (H9IIIB strain) infection of MT-4 human T-lymphoid cells in 10% FBS, and according to the methods disclosed by J. P. Vacca et al, “L-735,524: An orally bioavailable human immunodeficiency virus type 1 protease inhibitor,” Proc. Natl. Acad. Sci. USA, Vol. 91, pp. 4096-4100 (April 1994).

[2] = target: T1, wildtype HIV-1 protease (Human immunodeficiency virus type 1 group M subtype B, UniProt P04585); assay: Assay for inhibition of microbial expressed HIV protease (Pepcleav); assay type: biochemical; conditions: wild type HIV-1 protease expressed in E. coli, peptide substrate, pH 5.5; mean of at least two independent experiments; read-out: Pepcleav
T1 construct: the wildtype HIV-1 protease (which was expressed in Escherichia coli); made in house; host or cells: Escherichia coli
Procedure, shortened: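 E. coli-expressed wild-type HIV-1 protease (20 pM) preincubated 30 min at room temperature with inhibitor in pH 5.5 sodium acetate/NaCl/BSA buffer, then 400 μM Val-Ser-Gln-Asn-(βnaphthyl)Ala-Pro-Ile-Val added for 1 h at 30 °C. Quenched with formic acid; product quantified by LC-MS/MS peak area, indinavir internal standard.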

Row | SMILES | EC50 [1] [nM] | IC50 [2] [nM]
1 | CN1CCC(NC(=O)OC[C@@H]2CO[C@H](CCc3c(F)cncc3NC(=O)[C@@H](N)C(c3ccc(F)cc3)c3ccc(F)cc3)CN2)C1=O (stereo partly drawn) [Example 252, 4-fluoro-N-(5-fluoro-4-{2-[(2R,5S)-5-({[(1-methyl-2-oxopyrrolidin-3-yl)carbamoyl]oxy}methyl)morpholin-2-yl]ethyl}pyridin-3-yl)-β-(4-fluorophenyl)-L-phenylalaninamide] | 160 | 7.7
2 | COC(=O)N[C@H](C(=O)Nc1cccc(F)c1CC[C@@H]1CN[C@H](COC(=O)NCC(F)(F)F)CO1)[C@H](c1ccccc1)c1ccc(F)c(F)c1 [Example 294, (βR)-β-(3,4-difluorophenyl)-N-(3-fluoro-2-{2-[(2R,5S)-5-({[(2,2,2-trifluoroethyl)carbamoyl]oxy}methyl)morpholin-2-yl]ethyl}phenyl)-Nα-(methoxycarbonyl)-L-phenylalaninamide] | 14 | 3.8
3 | N[C@H](C(=O)Nc1cc(F)cc(F)c1CC[C@@H]1CN[C@H](COC(=O)NCC(F)(F)F)CO1)C(c1ccc(F)cc1)c1ccc(F)cc1 [Example 247, N-(3,5-difluoro-2-{2-[(2R,5S)-5-({[(2,2,2-trifluoroethyl)carbamoyl]oxy}methyl)morpholin-2-yl]ethyl}phenyl)-4-fluoro-β-(4-fluorophenyl)-L-phenylalaninamide] | 260 | 12
4 | N[C@H](C(=O)Nc1cncc(F)c1CC[C@@H]1CN[C@H](COC(=O)NCC(F)(F)F)CO1)[C@H](c1ccc(F)cc1)c1ccc(Cl)c(F)c1 [Example 221, (βR)-β-(4-chloro-3-fluorophenyl)-4-fluoro-N-(5-fluoro-4-{2-[(2R,5S)-5-({[(2,2,2-trifluoro-ethyl)carbamoyl]oxy}methyl)morpholin-2-yl]ethyl}pyridin-3-yl)-L-phenylalaninamide] | 22 | 1.1
5 | N[C@H](C(=O)Nc1cncc(F)c1CC[C@@H]1CN[C@H](COC(=O)NCC(F)(F)F)CO1)[C@H](c1ccccc1)c1ccc(Cl)cc1 [Example 95, (βR)-β-(4-Chlorophenyl)-N-(5-fluoro-4-{2-[(2R,5S)-5-({[(2,2,2-trifluoroethyl)carbamoyl]oxy}methyl)morpholin-2-yl]ethyl}pyridin-3-yl)-L-phenylalaninamide] | 16 | 0.4
6 | COC(=O)N[C@H](C(=O)Nc1cccc(F)c1CC[C@@H]1CN[C@H](COC(=O)NCC(F)(F)F)CO1)[C@H](c1ccccc1)c1ccc(OC)cc1 [Example 296, (βR)-N-(3-fluoro-2-{2-[(2R,5S)-5-({[(2,2,2-trifluoroethyl)carbamoyl]oxy}methyl)morpholin-2-yl]ethyl}phenyl)-Nα-(methoxy-carbonyl)-O-methyl-β-phenyl-L-tyrosinamide] | 120 | 23
7 | CC1(CNC(=O)OC[C@@H]2CO[C@H](CCc3c(F)cncc3NC(=O)[C@@H](N)C(c3ccc(F)cc3)c3ccc(F)cc3)CN2)CCCO1 (stereo partly drawn) [Example 123, 4-Fluoro-N-[5-fluoro-4-(2-{(2R,5S)-5-[({[(2-methyltetrahydrofuran-2-yl)methyl]carbamoyl}oxy)methyl]morpholin-2-yl}ethyl)pyridin-3-yl]-β-(4-fluorophenyl)-L-phenylalaninamide] | 19 | 3.2
8 | N[C@H](C(=O)Nc1cncc(F)c1CC[C@@H]1CN[C@H](COC(=O)NC[C@@H]2CCC(=O)N2)CO1)C(c1ccc(F)cc1)c1ccc(F)cc1 [Example 235, 4-fluoro-N-(5-fluoro-4-{2-[(2R,5S)-5-{[({[(2S)-5-oxopyrrolidin-2-yl]methyl}carbamoyl)oxy]methyl}morpholin-2-yl]ethyl}pyridin-3-yl)-β-(4-fluorophenyl)-L-phenylalaninamide] | 5000 | 97
9 | O=C(C[C@H](c1ccccc1)c1ccc(Cl)cc1)Nc1cccc(F)c1CC[C@@H]1CN[C@H](COC(=O)NCC(F)(F)F)CO1 [Example 150, {(3S,6R)-6-[2-(2-{[(3R)-3-(4-chlorophenyl)-3-phenylpropanoyl]amino}-6-fluorophenyl)ethyl]morpholin-3-yl}methyl (2,2,2-trifluoroethyl) carbamate] | 130 | 11
10 | N[C@H](C(=O)Nc1cncc(F)c1CC[C@@H]1CN[C@H](COC(=O)NCc2ccc3ccccc3n2)CO1)C(c1ccc(F)cc1)c1ccc(F)cc1 [Example 243, {(3S,6R)-6-[2-(3-fluoro-5-{[4-fluoro-β-(4-fluorophenyl)-L-phenylalanyl]amino}pyridin-4-yl)ethyl]morpholin-3-yl}methyl (quinolin-2-ylmethyl)carbamate] | 240 | 24
11 | N[C@H](C(=O)Nc1cccc(F)c1CC[C@@H]1CN[C@H](COC(=O)NCC(F)(F)F)CO1)[C@H](c1ccc(F)cc1)c1ccc(F)c(F)c1 [Example 270, (βR)-β-(3,4-difluorophenyl)-4-fluoro-N-(3-fluoro-2-{2-[(2R,5S)-5-({[(2,2,2-trifluoroethyl)carbamoyl]oxy}methyl)morpholin-2-yl]ethyl}phenyl)-L-phenylalaninamide] | 22 | 2.1
12 | N[C@H](C(=O)Nc1cncc(F)c1CC[C@@H]1CN[C@H](COC(=O)NCC2CCOCC2)CO1)C(c1ccc(F)cc1)c1ccc(F)cc1 [Example 208, 4-fluoro-β-(4-fluorophenyl)-N-(5-fluoro-4-{2-[(2R,5S)-5-({[(tetrahydro-2H-pyran-4-ylmethyl)carbamoyl]oxy}methyl)morpholin-2-yl]ethyl}pyridin-3-yl)-L-phenylalaninamide] | 100 | 18
13 | COC(=O)N[C@H](C(=O)Nc1cncc(F)c1CC[C@@H]1CN[C@H](COC(=O)NCC(F)(F)F)CO1)[C@H](c1ccccc1)c1ccc(OC(F)(F)F)cc1 [Example 291, (βR)-N-(5-fluoro-4-{2-[(2R,5S)-5-({[(2,2,2-trifluoroethyl)carbamoyl]oxy}methyl)morpholin-2-yl]ethyl}pyridin-3-yl)-Nα-(methoxycarbonyl)-β-phenyl-O-(trifluoromethyl)-L-tyrosinamide] | 110 | 28
14 | N[C@H](C(=O)Nc1cncc(F)c1CC[C@@H]1CN[C@H](COC(=O)NCC(F)(F)F)CO1)[C@H](c1ccccc1)c1ccc(OC(F)(F)F)cc1 [Example 238, (βR)-N-(5-fluoro-4-{2-[(2R,5S)-5-({[(2,2,2-trifluoroethyl)carbamoyl]oxy}methyl)morpholin-2-yl]ethyl}pyridin-3-yl)-β-phenyl-O-(trifluoromethyl)-L-tyrosinamide] | 470 | 69
15 | COC(=O)N[C@H](C(=O)Nc1cncc(F)c1CC[C@@H]1CN[C@H](COC(=O)NCC(F)(F)F)CO1)[C@@H](c1ccc(F)cc1)c1cccc(F)c1 [Example 281, (βS)-3-fluoro-β-(4-fluorophenyl)-N-(5-fluoro-4-{2-[(2R, 5S)-5-({[(2,2,2-trifluoroethyl)carbamoyl]oxy}methyl)morpholin-2-yl]ethyl}pyridin-3-yl)-Nα-(methoxycarbonyl)-L-phenylalaninamide] | 14 | 0.9
16 | N[C@H](C(=O)Nc1cncc(F)c1CC[C@@H]1CN[C@H](COC(=O)NCC(F)(F)F)CO1)[C@@H](c1ccc(Cl)cc1)c1cc(F)cc(F)c1 [Example 97, (βS)-β-(4-Chlorophenyl)-3,5-difluoro-N-(5-fluoro-4-{2-[(2R,5S)-5-({[(2,2,2-trifluoroethyl)carbamoyl]oxy}methyl)morpholin-2-yl]ethyl}pyridin-3-yl)-L-phenylalaninamide] | 17 | 0.8
